# Calls of active or inactive are those of the source.
# What was measured:
# Caspase-3 = biological target: T1, Caspase-3 (Homo sapiens, UniProt P42574); format: functional;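 further: Dose-response selectivity test against caspase-3 for candidate inhibitors of sentrin-specific proteases (SENPs)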
# T1 sequence (P42574 whole entry): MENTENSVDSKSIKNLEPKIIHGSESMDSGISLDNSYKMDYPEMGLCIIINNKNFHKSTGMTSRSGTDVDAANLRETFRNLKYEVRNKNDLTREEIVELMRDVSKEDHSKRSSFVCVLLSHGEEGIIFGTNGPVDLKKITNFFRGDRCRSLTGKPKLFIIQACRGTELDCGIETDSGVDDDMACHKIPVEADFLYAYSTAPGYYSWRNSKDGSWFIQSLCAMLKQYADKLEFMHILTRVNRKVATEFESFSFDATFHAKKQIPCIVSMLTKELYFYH
# [1] = biological target: T2, Sentrin-specific protease 7 (Homo sapiens, UniProt Q9BQF6); format: functional;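 further: Luminescence-based dose-response confirmation of ultra-high-throughput screening hits, measuring inhibition of SENP7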
# T2 sequence (Q9BQF6 whole entry): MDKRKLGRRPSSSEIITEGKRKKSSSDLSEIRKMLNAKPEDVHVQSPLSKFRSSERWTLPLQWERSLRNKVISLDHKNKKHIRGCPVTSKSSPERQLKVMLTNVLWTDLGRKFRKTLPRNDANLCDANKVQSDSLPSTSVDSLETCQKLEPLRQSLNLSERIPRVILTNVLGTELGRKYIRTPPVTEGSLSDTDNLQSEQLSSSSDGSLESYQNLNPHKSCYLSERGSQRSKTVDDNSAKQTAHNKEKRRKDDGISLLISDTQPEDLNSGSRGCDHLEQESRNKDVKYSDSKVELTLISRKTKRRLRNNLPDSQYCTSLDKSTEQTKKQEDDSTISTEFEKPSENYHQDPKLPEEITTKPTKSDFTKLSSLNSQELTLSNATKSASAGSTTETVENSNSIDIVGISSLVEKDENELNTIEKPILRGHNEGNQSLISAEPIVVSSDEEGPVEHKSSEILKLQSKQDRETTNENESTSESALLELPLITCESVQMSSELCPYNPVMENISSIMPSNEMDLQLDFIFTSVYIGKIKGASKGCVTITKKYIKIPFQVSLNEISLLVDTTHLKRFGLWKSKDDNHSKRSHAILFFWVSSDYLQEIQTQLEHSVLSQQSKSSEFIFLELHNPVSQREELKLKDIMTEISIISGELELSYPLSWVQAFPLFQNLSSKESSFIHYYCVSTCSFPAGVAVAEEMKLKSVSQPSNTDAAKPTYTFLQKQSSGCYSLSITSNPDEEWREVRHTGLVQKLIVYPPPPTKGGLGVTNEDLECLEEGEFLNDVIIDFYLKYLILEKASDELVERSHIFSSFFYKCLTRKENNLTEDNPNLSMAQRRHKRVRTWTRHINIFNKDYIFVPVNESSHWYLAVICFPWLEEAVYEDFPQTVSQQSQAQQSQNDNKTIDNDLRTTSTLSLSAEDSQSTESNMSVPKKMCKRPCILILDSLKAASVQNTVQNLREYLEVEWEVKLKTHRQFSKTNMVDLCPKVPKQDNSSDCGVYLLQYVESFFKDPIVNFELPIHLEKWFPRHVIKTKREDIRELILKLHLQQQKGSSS
# [2] = biological target: T3, Sentrin-specific protease 6 (Homo sapiens, UniProt Q9GZR1); format: functional;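 further: Luminescence-based dose-response confirmatory assay of SENP6 inhibition, following up an ultra-high-throughput screen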
# T3 sequence (Q9GZR1 whole entry): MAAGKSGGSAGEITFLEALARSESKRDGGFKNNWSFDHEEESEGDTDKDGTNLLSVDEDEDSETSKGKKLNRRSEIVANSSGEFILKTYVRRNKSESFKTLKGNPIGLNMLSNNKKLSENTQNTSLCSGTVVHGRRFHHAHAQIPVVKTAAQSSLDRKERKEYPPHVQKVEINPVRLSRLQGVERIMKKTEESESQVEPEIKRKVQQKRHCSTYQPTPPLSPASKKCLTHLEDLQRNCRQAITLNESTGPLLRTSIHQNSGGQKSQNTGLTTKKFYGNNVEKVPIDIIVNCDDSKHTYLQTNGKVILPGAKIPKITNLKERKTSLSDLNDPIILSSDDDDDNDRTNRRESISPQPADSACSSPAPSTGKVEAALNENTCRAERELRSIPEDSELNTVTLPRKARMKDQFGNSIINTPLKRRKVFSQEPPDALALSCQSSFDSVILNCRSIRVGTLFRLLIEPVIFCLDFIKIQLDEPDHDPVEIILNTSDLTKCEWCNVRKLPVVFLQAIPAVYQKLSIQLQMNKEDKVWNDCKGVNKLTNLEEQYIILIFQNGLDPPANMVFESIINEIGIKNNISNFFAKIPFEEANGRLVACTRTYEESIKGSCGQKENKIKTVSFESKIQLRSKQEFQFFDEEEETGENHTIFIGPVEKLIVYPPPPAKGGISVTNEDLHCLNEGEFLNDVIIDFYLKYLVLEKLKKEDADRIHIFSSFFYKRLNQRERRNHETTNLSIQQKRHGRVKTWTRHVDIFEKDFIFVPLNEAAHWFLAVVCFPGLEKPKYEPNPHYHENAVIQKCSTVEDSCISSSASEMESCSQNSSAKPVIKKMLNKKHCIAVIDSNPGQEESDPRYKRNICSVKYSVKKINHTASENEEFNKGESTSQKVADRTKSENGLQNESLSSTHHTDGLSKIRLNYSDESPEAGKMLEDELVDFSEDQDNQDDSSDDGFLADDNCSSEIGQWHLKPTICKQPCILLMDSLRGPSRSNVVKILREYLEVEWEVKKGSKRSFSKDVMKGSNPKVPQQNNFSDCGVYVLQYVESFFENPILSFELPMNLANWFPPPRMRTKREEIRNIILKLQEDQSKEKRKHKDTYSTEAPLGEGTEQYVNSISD
# [3] = biological target: T4, Sentrin-specific protease 8 (Homo sapiens, UniProt Q96LD8); format: functional;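 further: luminescence read-out of SENP8 inhibition, dose-response confirmation following an ultra-high-throughput screen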
# T4 sequence (Q96LD8 whole entry): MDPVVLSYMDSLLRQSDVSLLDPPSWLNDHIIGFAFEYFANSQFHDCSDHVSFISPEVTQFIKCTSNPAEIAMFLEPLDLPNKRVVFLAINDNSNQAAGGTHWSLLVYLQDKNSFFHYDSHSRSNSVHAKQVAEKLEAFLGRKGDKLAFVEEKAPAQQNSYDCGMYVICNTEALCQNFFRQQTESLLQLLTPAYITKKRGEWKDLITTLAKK
# [4] = biological target: T5, Heat shock factor protein 1 (Mus musculus, UniProt P38532); assay: enhancement of HSF1-driven luciferase signal – cell-based, NIH3T3, luminescence, dose retest, confirmation (AID 435004); format: functional;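 further: stress induced by proteasome inhibitor MG132 added 30 min after compound; luciferase reporter driven by HSF1 response element in NIH3T3 cells; actives raise luminescence as potentiators of the MG132 stress response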
# T5 sequence (P38532 whole entry): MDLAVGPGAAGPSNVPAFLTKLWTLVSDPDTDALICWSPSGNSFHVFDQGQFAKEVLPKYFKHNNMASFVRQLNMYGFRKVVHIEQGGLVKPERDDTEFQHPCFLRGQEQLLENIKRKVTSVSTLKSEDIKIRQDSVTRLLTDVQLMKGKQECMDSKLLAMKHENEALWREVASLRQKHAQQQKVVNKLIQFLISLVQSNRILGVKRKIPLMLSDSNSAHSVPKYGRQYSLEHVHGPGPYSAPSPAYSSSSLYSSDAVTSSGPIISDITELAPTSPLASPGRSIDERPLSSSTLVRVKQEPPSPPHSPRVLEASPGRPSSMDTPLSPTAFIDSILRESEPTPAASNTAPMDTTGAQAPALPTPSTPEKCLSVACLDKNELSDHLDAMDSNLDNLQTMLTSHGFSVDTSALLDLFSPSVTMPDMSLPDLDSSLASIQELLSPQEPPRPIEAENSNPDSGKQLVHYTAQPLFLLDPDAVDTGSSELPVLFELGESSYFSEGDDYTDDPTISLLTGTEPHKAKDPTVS
# [5] = Luminescence Cell-Based Dose Retest to Confirm Inhibitors of Cancer Stem Cells. [Related pubchem assays (depositor defined):AID2717, AID2721]; format: functional; conditions: Homo sapiens
# Fatty acid synthase [6] = biological target: T6, Fatty acid synthase (Homo sapiens, UniProt P49327); assay: inhibition of human FAS-TE enzyme activity – biochemical, endpoint fluorescence intensity, uHTS hits, dose response (AID 624327); format: functional;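 further: fluorescence from hydrolysis of an O-methyl fluorescein acyl ester substrate by the enzyme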
# T6 sequence (P49327 whole entry): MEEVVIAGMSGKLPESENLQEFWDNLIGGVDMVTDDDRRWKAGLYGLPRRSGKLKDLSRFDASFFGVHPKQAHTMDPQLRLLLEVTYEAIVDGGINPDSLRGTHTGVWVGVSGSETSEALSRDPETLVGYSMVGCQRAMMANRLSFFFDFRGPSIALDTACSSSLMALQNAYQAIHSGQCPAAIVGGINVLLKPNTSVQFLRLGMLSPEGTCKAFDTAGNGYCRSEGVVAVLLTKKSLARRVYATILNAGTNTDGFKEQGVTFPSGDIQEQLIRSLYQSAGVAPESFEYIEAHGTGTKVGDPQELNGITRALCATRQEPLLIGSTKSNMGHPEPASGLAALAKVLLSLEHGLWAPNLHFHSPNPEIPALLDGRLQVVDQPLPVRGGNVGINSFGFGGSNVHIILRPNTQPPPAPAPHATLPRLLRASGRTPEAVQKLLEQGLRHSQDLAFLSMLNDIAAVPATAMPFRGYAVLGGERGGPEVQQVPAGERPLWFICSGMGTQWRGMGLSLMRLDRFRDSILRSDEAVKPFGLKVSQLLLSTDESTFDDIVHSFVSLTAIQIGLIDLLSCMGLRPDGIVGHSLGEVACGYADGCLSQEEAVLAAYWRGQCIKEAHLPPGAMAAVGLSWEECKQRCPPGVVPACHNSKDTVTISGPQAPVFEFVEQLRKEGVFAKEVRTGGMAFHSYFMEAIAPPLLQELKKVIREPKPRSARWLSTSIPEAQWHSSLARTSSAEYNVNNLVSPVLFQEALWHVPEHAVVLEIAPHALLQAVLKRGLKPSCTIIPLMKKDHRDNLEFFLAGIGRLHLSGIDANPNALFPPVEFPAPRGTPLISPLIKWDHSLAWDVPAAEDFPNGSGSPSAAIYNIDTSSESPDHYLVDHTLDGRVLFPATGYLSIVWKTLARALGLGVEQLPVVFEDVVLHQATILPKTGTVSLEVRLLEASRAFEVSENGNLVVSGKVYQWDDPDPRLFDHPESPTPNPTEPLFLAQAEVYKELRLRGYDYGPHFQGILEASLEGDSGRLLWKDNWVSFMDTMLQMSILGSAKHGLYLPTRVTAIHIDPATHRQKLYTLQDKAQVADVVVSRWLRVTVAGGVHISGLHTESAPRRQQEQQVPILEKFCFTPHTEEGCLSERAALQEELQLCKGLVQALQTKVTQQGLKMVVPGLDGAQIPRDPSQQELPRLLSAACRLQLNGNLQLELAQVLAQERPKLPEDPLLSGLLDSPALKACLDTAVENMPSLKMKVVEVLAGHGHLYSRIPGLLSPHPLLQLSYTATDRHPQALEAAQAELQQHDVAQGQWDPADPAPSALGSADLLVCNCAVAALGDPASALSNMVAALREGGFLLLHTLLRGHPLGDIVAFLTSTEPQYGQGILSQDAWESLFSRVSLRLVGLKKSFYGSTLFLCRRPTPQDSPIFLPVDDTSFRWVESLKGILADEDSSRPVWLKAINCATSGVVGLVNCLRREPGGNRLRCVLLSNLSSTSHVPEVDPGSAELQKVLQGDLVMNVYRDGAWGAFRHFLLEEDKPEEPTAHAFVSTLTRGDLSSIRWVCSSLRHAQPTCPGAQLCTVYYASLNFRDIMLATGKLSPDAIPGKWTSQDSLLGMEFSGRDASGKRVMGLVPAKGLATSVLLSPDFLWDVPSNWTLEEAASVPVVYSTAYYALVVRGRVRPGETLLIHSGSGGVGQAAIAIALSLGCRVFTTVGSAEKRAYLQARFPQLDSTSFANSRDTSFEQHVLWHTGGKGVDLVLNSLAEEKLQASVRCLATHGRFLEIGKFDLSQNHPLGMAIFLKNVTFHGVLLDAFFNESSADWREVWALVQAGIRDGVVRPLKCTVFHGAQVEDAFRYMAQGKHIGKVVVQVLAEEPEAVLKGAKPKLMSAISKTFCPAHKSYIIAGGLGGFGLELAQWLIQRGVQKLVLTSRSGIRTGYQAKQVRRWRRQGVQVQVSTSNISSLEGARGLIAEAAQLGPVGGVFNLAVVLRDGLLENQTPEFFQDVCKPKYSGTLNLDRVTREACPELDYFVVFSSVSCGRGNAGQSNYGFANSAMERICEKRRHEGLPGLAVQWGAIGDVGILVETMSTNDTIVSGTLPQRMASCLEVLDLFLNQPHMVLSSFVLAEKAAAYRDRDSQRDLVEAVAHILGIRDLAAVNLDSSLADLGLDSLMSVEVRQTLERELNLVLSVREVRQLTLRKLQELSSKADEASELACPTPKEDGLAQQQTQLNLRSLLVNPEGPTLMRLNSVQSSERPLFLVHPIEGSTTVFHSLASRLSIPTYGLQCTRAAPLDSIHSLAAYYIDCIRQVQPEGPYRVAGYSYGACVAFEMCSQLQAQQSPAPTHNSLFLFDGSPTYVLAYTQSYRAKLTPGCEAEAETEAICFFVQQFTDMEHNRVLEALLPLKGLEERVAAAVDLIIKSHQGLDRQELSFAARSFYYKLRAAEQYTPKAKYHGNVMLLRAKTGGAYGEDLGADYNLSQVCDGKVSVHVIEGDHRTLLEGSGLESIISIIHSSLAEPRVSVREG
# Fatty acid synthase [7] = biological target: T6, Fatty acid synthase; assay: inhibition of human FAS-TE enzyme activity – biochemical, kinetic fluorescence intensity, dose response (AID 624326); format: functional;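 further: rate of fluorescence rise from hydrolysis of a fluorogenic O-methyl fluorescein ester substrate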
# [8] = biological target: T7, Corticotropin-releasing factor receptor 2/Corticotropin-releasing factor-binding protein (Homo sapiens, UniProt P24387+Q13324); assay: Dose Response confirmation of uHTS hits for small molecule antagonists of the CRF-binding protein and CRF-R2 receptor complex.; format: functional; conditions: read-out: IC50_Mean
# T7 sequence (Q13324 whole entry): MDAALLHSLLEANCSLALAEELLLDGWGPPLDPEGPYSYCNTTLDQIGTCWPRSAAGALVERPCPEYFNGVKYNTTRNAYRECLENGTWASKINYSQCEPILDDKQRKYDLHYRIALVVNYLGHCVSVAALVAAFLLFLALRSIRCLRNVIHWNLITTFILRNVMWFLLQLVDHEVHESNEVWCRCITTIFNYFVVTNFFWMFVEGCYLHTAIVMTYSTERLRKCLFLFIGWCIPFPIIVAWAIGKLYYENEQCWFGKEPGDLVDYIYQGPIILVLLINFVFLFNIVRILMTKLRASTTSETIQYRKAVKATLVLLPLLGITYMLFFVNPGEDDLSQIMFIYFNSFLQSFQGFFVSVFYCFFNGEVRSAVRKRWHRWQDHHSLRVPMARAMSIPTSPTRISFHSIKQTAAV
# T7 sequence (P24387 whole entry): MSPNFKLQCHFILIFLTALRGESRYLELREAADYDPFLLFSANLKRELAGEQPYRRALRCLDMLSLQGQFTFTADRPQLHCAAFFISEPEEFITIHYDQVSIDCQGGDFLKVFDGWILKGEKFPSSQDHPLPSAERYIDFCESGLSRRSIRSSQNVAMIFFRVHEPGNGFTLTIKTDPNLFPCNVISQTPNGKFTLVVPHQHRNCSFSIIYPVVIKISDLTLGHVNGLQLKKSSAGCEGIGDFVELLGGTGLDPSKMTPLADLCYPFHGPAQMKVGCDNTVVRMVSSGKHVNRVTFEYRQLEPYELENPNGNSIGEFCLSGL
# [9] = biological target: T7, Corticotropin-releasing factor receptor 2/Corticotropin-releasing factor-binding protein; assay: activators of CRF receptor 2 with binding protein – uHTS hits, confirmation (AID 602473); format: functional; conditions: read-out: EC50_Mean
# [10] = biological target: T8, Rac GTPase-activating protein 1 (Homo sapiens, UniProt Q9H0H5); assay: blockers of MgcRacGAP-driven Rac1 GTP hydrolysis – biochemical, ADP Hunter fluorescence, primary and confirmatory, confirmation (AID 624330); format: functional
# T8 sequence (Q9H0H5 whole entry): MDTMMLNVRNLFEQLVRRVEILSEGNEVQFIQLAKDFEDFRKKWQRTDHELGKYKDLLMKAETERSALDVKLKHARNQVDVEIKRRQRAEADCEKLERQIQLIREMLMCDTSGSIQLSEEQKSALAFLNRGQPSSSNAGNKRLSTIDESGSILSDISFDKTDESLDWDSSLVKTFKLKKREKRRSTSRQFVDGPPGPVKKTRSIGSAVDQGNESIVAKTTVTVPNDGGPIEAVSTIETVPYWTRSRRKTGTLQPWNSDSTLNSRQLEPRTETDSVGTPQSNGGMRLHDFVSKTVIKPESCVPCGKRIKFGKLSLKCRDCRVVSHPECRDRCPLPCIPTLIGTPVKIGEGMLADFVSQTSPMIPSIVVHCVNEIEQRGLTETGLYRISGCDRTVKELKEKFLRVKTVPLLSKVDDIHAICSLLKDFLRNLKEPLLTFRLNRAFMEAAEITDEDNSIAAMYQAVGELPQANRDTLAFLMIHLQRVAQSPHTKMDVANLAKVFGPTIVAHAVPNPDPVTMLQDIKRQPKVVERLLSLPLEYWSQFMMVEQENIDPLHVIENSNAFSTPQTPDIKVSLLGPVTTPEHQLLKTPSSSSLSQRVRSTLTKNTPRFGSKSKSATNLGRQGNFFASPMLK
# [11] = biological target: T9, DNA repair protein RAD52 homolog (Homo sapiens, UniProt P43351); format: functional, biochemical
# T9 sequence (P43351 whole entry): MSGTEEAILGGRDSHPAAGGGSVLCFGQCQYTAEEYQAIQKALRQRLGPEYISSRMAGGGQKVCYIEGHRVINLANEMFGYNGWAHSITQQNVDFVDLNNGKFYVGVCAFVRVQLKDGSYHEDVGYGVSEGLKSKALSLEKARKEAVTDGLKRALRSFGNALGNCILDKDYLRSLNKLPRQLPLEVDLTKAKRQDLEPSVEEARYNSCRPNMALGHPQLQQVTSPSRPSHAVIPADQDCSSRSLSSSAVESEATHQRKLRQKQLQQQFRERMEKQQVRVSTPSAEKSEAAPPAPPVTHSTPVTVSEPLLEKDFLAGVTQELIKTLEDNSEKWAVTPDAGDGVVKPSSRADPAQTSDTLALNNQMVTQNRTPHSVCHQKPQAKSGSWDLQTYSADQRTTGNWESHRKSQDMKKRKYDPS
# Escherichia coli [12] = assay: microbe, parasite or virus in culture
# Escherichia coli [13] = assay: microbe, parasite or virus in culture; remark: listed apart in the source
Structure (SMILES),IC50 (Caspase-3),IC50 [1],IC50 [2],IC50 [3],EC50 [4],AC50 [5],IC50 (Fatty acid synthase [6]),IC50 (Fatty acid synthase [7]),IC50 [8],EC50 [9],IC50 [10],AC50 [11],AC50 (Escherichia coli [12]),AC50 (Escherichia coli [13])
O=C(O)c1ccc(-c2nc(O)c3c(-c4ccccc4)csc3n2)cc1,> 100 µM (inactive),40.4 µM (active),56.1 µM (active),61.6 µM (active),,,,,,,,,,
COc1nc(C)ccc1-c1noc(-c2cccs2)n1,13 µM (active),5.07 µM (active),32.7 µM (active),9.82 µM (active),> 260 µM (inactive),,,,,,,,,
COc1ccc2nc(NC(=O)c3ccc([N+](=O)[O-])o3)sc2c1,28.2 µM (active),4.54 µM (active),13.8 µM (active),22.9 µM (active),,1.96 µM (active),14.5 µM (active),8.39 µM (active),,,,,,
NCC[C@H](O)C(=O)N[C@@H]1C[C@H](N)[C@@H](O[C@H]2O[C@H](CN)[C@@H](O)[C@H](O)[C@H]2O)[C@H](O)[C@H]1O[C@H]1O[C@H](CO)[C@@H](O)[C@H](N)[C@H]1O,,,,,,,,,> 47.1 µM (inactive),> 53 µM (inactive),113 µM (active),5.91 µM (active),14.9 µM (active),4.69 µM (active)
